Our source for the GI50 and TGI values is PubChem BioAssay (NCI).

Among the test systems are NCI-H522 lung; SNB-19 CNS; 786-0 renal; SW-620 colon; U251 CNS; HT29 colon; M14 melanoma; COLO 205 colon; LOX IMVI melanoma; RPMI-8226 leukemia.
Common to all, as to test: NCI-60 cell line screen, 48 h

SMILES strings stand for the structures. Values joined by “and” are separate entries in the source; they are usually repeats but may differ in a detail not shown here. Equal values may be shown once.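 These data come from cells grown in 96-well plates and exposed to compound for 48 hours at five concentrations. The concentration for 50% growth inhibition is given as GI50. TGI marks complete inhibition of growth.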

As to `COCc1c(-c2cc3cc(C)cc(OC)c3s2)c2c(N)ncnn2c1CN1CCNC(=O)C1`, the GI50 in the assay with NCI-H522 lung is 3.78 µM; in the assay with SNB-19 CNS it was 8.21 µM; in the assay on 786-0 renal, 5.86 µM; with SW-620 colon, 3.5 µM; in the assay with U251 CNS, 3.86 µM; with HT29 colon, 3.68 µM. The GI50 in the assay with M14 melanoma was 4.12 µM; in the assay with COLO 205 colon it was 5.13 µM; in the assay with LOX IMVI melanoma, 3.05 µM; in the assay on RPMI-8226 leukemia, 1.58 µM. The TGI in the assay with NCI-H522 lung was 25.3 µM; in the assay on SNB-19 CNS, more than 100 µM; with 786-0 renal, 82.9 µM; in the assay on SW-620 colon it was more than 100 µM; with U251 CNS, 79.7 µM; in the assay on HT29 colon, 19.9 µM. Further, the TGI in the assay with M14 melanoma was determined as 35.4 µM; in the assay with COLO 205 colon, 24.4 µM; in the assay on LOX IMVI melanoma, 13.5 µM; with RPMI-8226 leukemia, 6.83 µM.
Consider `COc1ccc(Cc2coc3ccccc3c2=O)cc1OC`, for which the TGI in the assay on NCI-H522 lung, in the assay with SNB-19 CNS, with 786-0 renal, with SW-620 colon, in the assay with U251 CNS and with HT29 colon was more than 100 µM throughout. The TGI in the assay with M14 melanoma, in the assay with COLO 205 colon, in the assay on LOX IMVI melanoma and in the assay with RPMI-8226 leukemia was more than 100 µM throughout.
In the case of `CC(C)(C)c1ccc(Oc2ccc(N)cn2)cc1`, the GI50 in the assay with NCI-H522 lung is 9.46 µM; in the assay on SNB-19 CNS it was more than 100 µM; in the assay with 786-0 renal, 16.8 µM; in the assay with SW-620 colon, more than 100 µM; in the assay with U251 CNS it was 49.2 µM; with HT29 colon it was 47.2 µM. Besides, the GI50 with M14 melanoma was 56.4 µM; with COLO 205 colon, 50.7 µM; in the assay with LOX IMVI melanoma, 60.1 µM; with RPMI-8226 leukemia, 1.99 µM. For the same molecule, the TGI in the assay with NCI-H522 lung, in the assay with SNB-19 CNS, in the assay on 786-0 renal, in the assay with SW-620 colon, in the assay with U251 CNS and in the assay on HT29 colon was more than 100 µM in each case. The TGI in the assay with M14 melanoma is more than 100 µM; in the assay with COLO 205 colon, more than 100 µM; in the assay on LOX IMVI melanoma, more than 100 µM; with RPMI-8226 leukemia, 41.2 µM.
Consider `CNC(=O)c1cc(Oc2ccc(NC(=O)Nc3ccc(Cl)c(C(F)(F)F)c3)c(F)c2)ccn1`, for which the GI50 in the assay with NCI-H522 lung was 1.73 µM and 1.7 µM; in the assay on SNB-19 CNS, 4.27 µM and 4.06 µM; with 786-0 renal, 3.39 µM and 3.06 µM; in the assay with SW-620 colon it was 2.23 µM and 2.47 µM; in the assay on U251 CNS, 2.79 µM and 2.46 µM; with HT29 colon it was 1.82 µM and 1.43 µM. The GI50 is 1.38 µM and 1.28 µM with M14 melanoma; 2.28 µM and 1.36 µM in the assay on COLO 205 colon; 1.12 µM and 0.787 µM in the assay with LOX IMVI melanoma; 1.71 µM and 1.83 µM with RPMI-8226 leukemia. Moreover, the TGI in the assay on NCI-H522 lung was 5.84 µM and 6.43 µM; in the assay with SNB-19 CNS it was more than 41.6 µM; in the assay on 786-0 renal, more than 83.2 µM; in the assay with SW-620 colon it was 14.9 µM and > 10 µM; in the assay with U251 CNS, 11.3 µM and > 10 µM; in the assay on HT29 colon it was 8.83 µM and > 10 µM. Besides, the TGI is 6.75 µM and 8.81 µM in the assay with M14 melanoma; 8.52 µM and 5.74 µM in the assay on COLO 205 colon; 6.93 µM and > 10 µM with LOX IMVI melanoma; 4.96 µM and 7.32 µM in the assay on RPMI-8226 leukemia.
As to `COc1cccc(CC(C)=C(c2ccc(OCCN3CCCCC3)cc2)c2ccc(OCCN3CCCCC3)cc2)c1`, the GI50 with NCI-H522 lung was 2.16 µM; in the assay with SNB-19 CNS, 2.11 µM; in the assay on 786-0 renal, 1.87 µM; in the assay with SW-620 colon, 1.74 µM; with U251 CNS, 1.81 µM; in the assay on HT29 colon it was 0.82 µM. The GI50 in the assay on M14 melanoma was 1.67 µM; with COLO 205 colon it was 1.41 µM; in the assay with LOX IMVI melanoma it was 1.64 µM; in the assay on RPMI-8226 leukemia, 1.62 µM. Besides, the TGI in the assay on NCI-H522 lung was found to be 4.53 µM; with SNB-19 CNS it was 4.13 µM; in the assay on 786-0 renal, 3.89 µM; in the assay with SW-620 colon, 3.78 µM; in the assay on U251 CNS it was 3.7 µM; in the assay with HT29 colon, 2.79 µM. The TGI in the assay with M14 melanoma worked out at 3.76 µM; in the assay on COLO 205 colon it was 3.73 µM; in the assay with LOX IMVI melanoma, 3.52 µM; in the assay with RPMI-8226 leukemia, 4.41 µM.
As for `COC(=O)C1Cc2c(n(C)c3ccccc23)C(CCC(=O)O)N1Cc1ccccc1` (stereo not given), the TGI in the assay on NCI-H522 lung is 91.2 µM; with SNB-19 CNS, 97.3 µM; with 786-0 renal, more than 100 µM; with SW-620 colon it was more than 100 µM; with U251 CNS, more than 100 µM; in the assay on HT29 colon, more than 100 µM. Also, the TGI was 62.2 µM in the assay on M14 melanoma, 71.9 µM in the assay with COLO 205 colon, more than 100 µM with LOX IMVI melanoma and 75.2 µM with RPMI-8226 leukemia.
For `Cc1csc2[n+]1-c1ccccc1N(C(=O)Nc1ccccc1)C(C)C2` (stereo not given), the GI50 in the assay on NCI-H522 lung is 61.9 µM; in the assay with SNB-19 CNS, more than 100 µM; in the assay on 786-0 renal it was 17.7 µM; in the assay on SW-620 colon it was 41 µM; in the assay with U251 CNS it was 69.4 µM; in the assay on HT29 colon, 36.6 µM. Besides, the GI50 with M14 melanoma is 43.7 µM; in the assay with COLO 205 colon it was more than 100 µM; with LOX IMVI melanoma it was 21.6 µM; with RPMI-8226 leukemia, 67.5 µM. Moreover, the TGI is more than 100 µM with NCI-H522 lung; more than 100 µM with SNB-19 CNS; 35.8 µM with 786-0 renal; more than 100 µM in the assay on SW-620 colon; more than 100 µM with U251 CNS; more than 100 µM in the assay on HT29 colon. For the same molecule, the TGI with M14 melanoma was more than 100 µM; in the assay on COLO 205 colon, more than 100 µM; with LOX IMVI melanoma, 48.5 µM; with RPMI-8226 leukemia, more than 100 µM.
Take `O=C(CCCN1CCC(O)(c2ccc(Cl)cc2)CC1)c1ccc(F)cc1`: the TGI with NCI-H522 lung was 39.5 µM; in the assay with SNB-19 CNS, more than 100 µM; with 786-0 renal it was 39.8 µM; in the assay on SW-620 colon it was 39.6 µM; in the assay on U251 CNS, 41.1 µM; in the assay on HT29 colon, more than 100 µM. The TGI in the assay on M14 melanoma was 34.6 µM; in the assay on COLO 205 colon, 43.2 µM; with LOX IMVI melanoma, 33.1 µM; in the assay with RPMI-8226 leukemia, more than 100 µM.
As to `CC1=C2[C@@H](CC1)[C@]1(C)O[C@@](C(C)C)(C[C@H]1OC(=O)CO)[C@H]2OC(=O)C1CC1c1ccccc1` (stereo not given in full), the GI50 was 12.7 µM with NCI-H522 lung; 16.7 µM with SNB-19 CNS; 15.1 µM with 786-0 renal; 16.4 µM in the assay on SW-620 colon; 14.8 µM with U251 CNS; 13.5 µM in the assay on HT29 colon. The GI50 is 12.8 µM in the assay with M14 melanoma, 16.1 µM in the assay on COLO 205 colon, 14.4 µM in the assay on LOX IMVI melanoma and 12.8 µM in the assay with RPMI-8226 leukemia. Besides, the TGI in the assay with NCI-H522 lung is 28 µM; in the assay with SNB-19 CNS, 34.6 µM; with 786-0 renal, 32.2 µM; with SW-620 colon it was 32.6 µM; with U251 CNS, 28.6 µM; with HT29 colon, 28.3 µM. In addition, the TGI in the assay on M14 melanoma turned out to be 29.3 µM; in the assay on COLO 205 colon it was 33 µM; with LOX IMVI melanoma it was 31.1 µM; with RPMI-8226 leukemia, 42.6 µM.
For `COC(=O)c1ccc(CN2C(=O)C(Cl)=C(Nc3cccc(Cl)c3C)C2=O)cc1`, the GI50 was 3.51 µM in the assay with NCI-H522 lung; more than 100 µM with SNB-19 CNS; 15.6 µM in the assay with 786-0 renal; 3.45 µM with SW-620 colon; 32.4 µM in the assay with U251 CNS; 4.85 µM with HT29 colon. In addition, the GI50 with M14 melanoma is 4.01 µM; in the assay on COLO 205 colon, 19.7 µM; with LOX IMVI melanoma, 32.3 µM; in the assay with RPMI-8226 leukemia, 3.76 µM. Besides, the TGI in the assay on NCI-H522 lung is 20.8 µM; in the assay on SNB-19 CNS, more than 100 µM; in the assay on 786-0 renal, 51.5 µM; with SW-620 colon, 26.4 µM; in the assay with U251 CNS, more than 100 µM; with HT29 colon it was more than 100 µM. The TGI with M14 melanoma was more than 100 µM; with COLO 205 colon, more than 100 µM; in the assay with LOX IMVI melanoma, more than 100 µM; with RPMI-8226 leukemia, 48.2 µM.
`CC(=O)[O-].Cn1ccnc1CNCc1nccn1C.[Cu+2].[O-][Cl+3]([O-])([O-])[O-]`: the GI50 is more than 100 µM with NCI-H522 lung; more than 100 µM with SNB-19 CNS; more than 100 µM with 786-0 renal; more than 100 µM in the assay with SW-620 colon; 33.7 µM in the assay on U251 CNS; more than 100 µM in the assay with HT29 colon. Besides, the GI50 in the assay on M14 melanoma, in the assay on COLO 205 colon, with LOX IMVI melanoma and with RPMI-8226 leukemia was more than 100 µM each time. In addition, the TGI in the assay on NCI-H522 lung, in the assay with SNB-19 CNS, with 786-0 renal, in the assay on SW-620 colon, in the assay with U251 CNS and in the assay with HT29 colon was more than 100 µM throughout. In addition, the TGI with M14 melanoma, in the assay on COLO 205 colon, with LOX IMVI melanoma and in the assay on RPMI-8226 leukemia was more than 100 µM in each case.
As for `CNC(=O)c1c(NC(=O)c2ccc(C(C)(C)C)cc2)sc2c1CCC(=O)C2`, the GI50 was 0.197 µM in the assay with NCI-H522 lung; 0.321 µM in the assay with SNB-19 CNS; 0.434 µM in the assay with 786-0 renal; 0.0984 µM with SW-620 colon; 0.143 µM in the assay on U251 CNS; 0.263 µM in the assay with HT29 colon. For the same molecule, the GI50 with M14 melanoma was 0.346 µM; in the assay on COLO 205 colon, 0.2 µM; in the assay with LOX IMVI melanoma it was 0.19 µM; with RPMI-8226 leukemia, 0.0553 µM. The TGI was found to be 1.41 µM with NCI-H522 lung; 1.39 µM with SNB-19 CNS; 1.83 µM with 786-0 renal; 1.27 µM with SW-620 colon; 1.45 µM in the assay with U251 CNS; 1.56 µM in the assay with HT29 colon. Further, the TGI was 1.79 µM in the assay on M14 melanoma, 0.462 µM with COLO 205 colon, 1.31 µM in the assay with LOX IMVI melanoma and 0.511 µM in the assay on RPMI-8226 leukemia.
